From patent publication US12473350B2, “Recombinant humanized type III collagen microsphere with innovative spatial structure, and design, preparation process and usethereof” (Nanjing Tzone Biotechnology Co., Ltd., priority 2023, dated 2025) come the findings set out here.

The test system of this test is Human skin fibroblasts (HSF cells). Nature of the test: MTT assay, effect on HSF cell growth. It counts as cell-based. Conditions: 10% DMSO. The method, then:
Dimethyl sulfoxide (DMSO) can dissolve formazan in cells, and its light absorption value can be measured at a wavelength of […] using an enzyme-linked immunosorbent assay, which can indirectly reflect the number of live cells. Within a certain range of cell numbers, the amount of MTT crystals formed is proportional to the number of cells.
Logarithmic phase cells are collected and the cell suspension concentration is adjusted. 100 μL of cell suspension is added per well and plated to adjust the density of the cells to be tested to 10,000 cells/well, and the edge wells are filled with sterile PBS. The cells are incubated under 5% CO2 at 37° C. until the cell monolayer spreads over all the bottom of the wells. Then, the drug in a concentration gradient is added; in principle, the drug can be added once the cells have adhered, with five parallel settings. The incubation is performed under 5% CO2 at 37° C. for 24 h or 48 h and the cells are observed under an inverted microscope. 20 μL of MTT solution (5 mg/mL, i.e., 0.5% MTT) is added to each well and the incubation is continued for 4 h. […] The light absorption value of each well is measured at […] using an Enzyme-Linked Immunosorbent Assay (ELISA) reader. […]

Each structure is given as a SMILES string.

As for `C[S+](C)[O-]` [DMSO, Dimethyl Sulfoxide, reference compound], the “RGR (24 h)” value (24 h) came out at 28.20%. Moreover, the “RGR (48 h)” value (48 h) is 17.15%.
